From patent publication US6726908B2, “Pharmaceutical formulation” (SmithKline Beecham p.l.c., priority 1995, dated 2004) come the findings set out here.

Holding throughout (format): cell-based, Streptococcus pneumoniae
Test [1] concerns S Pneumoniae N1387. As to the kind of experiment: MIC against resistant S Pneumoniae strain N1387.
Test [2] concerns S Pneumoniae 14319. As to the kind of experiment: MIC against resistant S Pneumoniae strain 14319.
Test [3] concerns S Pneumoniae 410101. Put plainly: MIC against resistant S Pneumoniae strain 410101.
Where [4] appears, read: Streptococcus pneumoniae, read-out: MIC.

Converted amounts (≈) assume the structure as drawn. Read-outs that look alike come from different tables or passages of the source.

Usually MIC stands for the least concentration at which growth counts as inhibited. As to `CC1(C)S[C@@H]2[C@H](NC(=O)[C@H](N)c3ccc(O)cc3)C(=O)N2[C@H]1C(=O)O` [Amoxycillin], the figures for the minimal inhibitory concentration (MIC) in test [1] (setting [4]), in test [2] (setting [4]) and in test [3] (setting [4]) were 2 µg/mL (≈ 5.47 µM), 4 µg/mL (≈ 10.9 µM) and 4 µg/mL (≈ 10.9 µM), respectively.

In the case of `CC1(C)S[C@@H]2[C@H](NC(=O)Cc3ccccc3)C(=O)N2[C@H]1C(=O)O` [Penicillin G], the MIC in test [1] was found to be 2 µg/mL (≈ 5.98 µM); in test [2] it was 8 µg/mL (≈ 23.9 µM); in test [3], 4 µg/mL (≈ 12 µM).
